Where two headings read alike, the source gives them in different places.
Key:
ALK = molecular target: T1, ALK (Homo sapiens, UniProt Q9UM73); assay: ALK Kinase Assay (ELISA/TRF, PLC-γ substrate); assay type: biochemical; conditions: read-out: ALK Potency
T1 construct: host or cells: baculovirus expression system
Outline: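 PLC-γ coat 10 μg/mL in TBS; ALK 30 ng/ml added to start; 37° C, 15 min; Eu-N1 PT66 antibody detection (TRF). IC50: % inhibition vs log10 [cpd], variable-slope sigmoidal fit.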

JAK2 = molecular target: T2, JAK2 (Homo sapiens, UniProt O60674); assay: Recombinant Human JAK2 Kinase Assay (TRF); assay type: biochemical; conditions: read-out: JAK2 Potency
T2 construct: host or cells: baculovirus expression system
T2 sequence (O60674 whole entry): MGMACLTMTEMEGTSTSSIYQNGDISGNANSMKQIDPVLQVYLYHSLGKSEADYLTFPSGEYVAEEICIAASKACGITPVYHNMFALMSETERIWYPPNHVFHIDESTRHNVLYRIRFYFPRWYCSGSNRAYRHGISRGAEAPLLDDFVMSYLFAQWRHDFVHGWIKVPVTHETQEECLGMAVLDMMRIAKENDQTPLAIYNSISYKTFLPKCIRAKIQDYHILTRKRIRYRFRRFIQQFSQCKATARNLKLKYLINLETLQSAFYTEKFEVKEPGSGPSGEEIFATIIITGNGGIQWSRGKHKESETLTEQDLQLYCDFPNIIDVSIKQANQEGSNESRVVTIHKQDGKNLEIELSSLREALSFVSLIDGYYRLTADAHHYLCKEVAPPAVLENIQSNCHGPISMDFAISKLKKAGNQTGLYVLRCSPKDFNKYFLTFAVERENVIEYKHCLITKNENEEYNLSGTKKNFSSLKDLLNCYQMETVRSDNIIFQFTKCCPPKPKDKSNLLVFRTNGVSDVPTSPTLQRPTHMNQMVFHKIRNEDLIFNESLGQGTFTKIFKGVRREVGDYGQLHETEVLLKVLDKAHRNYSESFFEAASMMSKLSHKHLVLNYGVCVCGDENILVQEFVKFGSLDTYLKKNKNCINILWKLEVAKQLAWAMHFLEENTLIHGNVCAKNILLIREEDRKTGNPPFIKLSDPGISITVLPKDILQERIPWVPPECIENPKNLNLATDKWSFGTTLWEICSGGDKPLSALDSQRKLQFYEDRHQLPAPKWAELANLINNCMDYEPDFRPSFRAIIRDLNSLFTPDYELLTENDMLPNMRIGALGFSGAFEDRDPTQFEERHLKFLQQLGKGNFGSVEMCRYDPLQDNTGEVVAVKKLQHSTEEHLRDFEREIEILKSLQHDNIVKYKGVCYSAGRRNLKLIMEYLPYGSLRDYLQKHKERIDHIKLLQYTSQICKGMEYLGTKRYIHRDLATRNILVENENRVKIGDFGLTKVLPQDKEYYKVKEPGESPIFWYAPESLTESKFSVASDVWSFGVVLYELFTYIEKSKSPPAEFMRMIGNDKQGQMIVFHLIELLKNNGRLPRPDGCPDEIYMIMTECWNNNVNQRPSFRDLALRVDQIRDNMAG
Outline: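 Europium-labelled PY100 antibody reported tyrosine phosphorylation of a Neutravidin-captured biotinyl 15-mer peptide by JAK2 (baculovirus-expressed, 15 ng/ml). Conditions: 20 mM HEPES pH 7.2, 0.2 μM ATP, 1 mM MnCl2, 0.1% BSA, DMSO 2.5% final, 20 min at room temperature.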

[1] = ALK kinase inhibition, 1 μM ATP
[2] = JAK2 kinase inhibition, 0.2 μM ATP

T1 sequence (Q9UM73 19-1620): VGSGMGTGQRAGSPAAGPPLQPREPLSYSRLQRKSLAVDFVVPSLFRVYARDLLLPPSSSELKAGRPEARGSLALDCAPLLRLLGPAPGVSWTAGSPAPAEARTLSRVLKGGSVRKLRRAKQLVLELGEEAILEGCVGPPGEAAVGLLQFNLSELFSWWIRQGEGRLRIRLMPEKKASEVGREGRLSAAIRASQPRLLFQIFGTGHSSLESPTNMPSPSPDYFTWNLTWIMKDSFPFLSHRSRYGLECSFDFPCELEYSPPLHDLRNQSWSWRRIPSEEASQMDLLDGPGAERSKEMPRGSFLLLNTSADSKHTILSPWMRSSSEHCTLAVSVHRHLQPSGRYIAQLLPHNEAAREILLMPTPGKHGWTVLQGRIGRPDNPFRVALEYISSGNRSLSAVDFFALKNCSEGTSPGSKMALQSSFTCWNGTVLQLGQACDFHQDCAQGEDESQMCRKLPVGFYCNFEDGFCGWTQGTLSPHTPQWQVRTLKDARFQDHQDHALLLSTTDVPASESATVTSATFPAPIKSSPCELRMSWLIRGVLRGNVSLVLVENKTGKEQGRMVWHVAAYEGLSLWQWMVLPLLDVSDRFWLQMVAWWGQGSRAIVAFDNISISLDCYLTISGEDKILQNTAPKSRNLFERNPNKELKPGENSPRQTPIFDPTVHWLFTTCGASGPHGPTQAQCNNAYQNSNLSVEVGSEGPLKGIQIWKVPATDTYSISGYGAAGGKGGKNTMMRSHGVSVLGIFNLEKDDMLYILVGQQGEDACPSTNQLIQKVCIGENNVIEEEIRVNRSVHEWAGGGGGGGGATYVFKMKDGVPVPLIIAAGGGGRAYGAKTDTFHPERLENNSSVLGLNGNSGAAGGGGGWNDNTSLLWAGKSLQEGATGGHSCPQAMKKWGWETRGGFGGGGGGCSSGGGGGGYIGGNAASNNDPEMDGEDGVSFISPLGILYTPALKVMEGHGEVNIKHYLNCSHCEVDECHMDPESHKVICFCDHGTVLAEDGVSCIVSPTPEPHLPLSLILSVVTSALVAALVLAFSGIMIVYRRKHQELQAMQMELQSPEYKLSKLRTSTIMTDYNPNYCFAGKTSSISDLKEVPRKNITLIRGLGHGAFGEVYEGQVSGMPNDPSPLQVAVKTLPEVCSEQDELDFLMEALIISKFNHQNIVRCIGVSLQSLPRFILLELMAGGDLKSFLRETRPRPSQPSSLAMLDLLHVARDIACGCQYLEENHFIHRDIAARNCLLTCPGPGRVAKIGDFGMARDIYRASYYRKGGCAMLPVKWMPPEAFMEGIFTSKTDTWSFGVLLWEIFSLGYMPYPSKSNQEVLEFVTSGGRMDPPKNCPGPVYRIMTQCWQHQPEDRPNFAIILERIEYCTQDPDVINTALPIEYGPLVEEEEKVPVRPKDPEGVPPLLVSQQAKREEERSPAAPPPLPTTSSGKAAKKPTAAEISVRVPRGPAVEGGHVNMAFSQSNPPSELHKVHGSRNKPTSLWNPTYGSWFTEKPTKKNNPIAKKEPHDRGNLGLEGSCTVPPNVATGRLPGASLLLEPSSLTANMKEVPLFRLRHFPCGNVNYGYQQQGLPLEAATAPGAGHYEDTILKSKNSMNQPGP

| Compound | IC50 (ALK; ALK Kinase Inhibition) [nM] | IC50 (JAK2; JAK2 Kinase Inhibition) [nM] | IC50 (ALK; [1]) [nM] | IC50 (JAK2; [2]) [nM] |
| --- | --- | --- | --- | --- |
| COc1ccccc1-c1ccc2cnc(Nc3ccc(C4CCN(C(=O)N5CCN(C)CC5)CC4)cc3)nn12 [Example 501, (4-{4-[7-(2-Methoxy-phenyl)-pyrrolo[2,1-f][1,2,4]triazin-2-ylamino]-phenyl}-piperidin-1-yl)-(4-methyl-piperazin-1-yl)-methanone] |  |  | < 100 | < 100 |
| CN1CCN(C(=O)C(F)(F)c2ccc(Nc3ncc4ccc(-c5cccc(S(=O)(=O)NC(C)(C)C)c5)n4n3)cc2)CC1 [Example 1515, N-tert-Butyl-3-(2-{4-[1,1-difluoro-2-(4-methyl-piperazin-1-yl)-2-oxo-ethyl]-phenylamino}-pyrrolo[2,1-f][1,2,4]triazin-7-yl)-benzenesulfonamide] | 100 to 1000 | < 100 |  |  |
| c1cc2cnc(Nc3ccc(N4CCOCC4)cc3)nn2c1 [Example 50, (4-Morpholin-4-yl-phenyl)-pyrrolo[2,1-f][1,2,4]triazin-2-yl-amine] | > 10000 | < 100 |  |  |
| COc1cccc(-c2ccn3nc(Nc4ccc(N5CCN(C)CC5)cc4)ncc23)c1 [Example 725, [5-(3-Methoxy-phenyl)-pyrrolo[2,1-f][1,2,4]triazin-2-yl]-[4-(4-methyl-piperazin-1-yl)-phenyl]-amine] |  |  | > 10000 | > 10000 |
| CN1CCOc2ccc(Nc3ncc4ccc(-c5cccc(S(=O)(=O)NC(C)(C)C)c5)n4n3)cc21 [Example 650, N-tert-Butyl-3-[2-(4-methyl-3,4-dihydro-2H-benzo[1,4]oxazin-6-ylamino)-pyrrolo[2,1-f][1,2,4]triazin-7-yl]-benzenesulfonamide] |  |  | 100 to 1000 | < 100 |
| COc1ccccc1-c1ccc2cnc(Nc3ccc(C4(C#N)CCN(CC(N)=O)CC4)cc3)nn12 [Example 1548, 2-(4-Cyano-4-{4-[7-(2-methoxy-phenyl)-pyrrolo[2,1-f][1,2,4]triazin-2-ylamino]-phenyl}-piperidin-1-yl)-acetamide] | 100 to 1000 | < 100 |  |  |
| Cc1cc(Nc2ncc3ccc(-c4cccc(S(=O)(=O)NC(C)(C)C)c4)n3n2)ccc1C1CCN(C)CC1 [Example 940, N-tert-Butyl-3-{2-[3-methyl-4-(1-methyl-piperidin-4-yl)-phenylamino]-pyrrolo[2,1-f][1,2,4]triazin-7-yl}-benzenesulfonamide] |  |  | < 100 | < 100 |
| CN1CCN(Cc2nc3cc(Nc4ncc5ccc(-c6ccc(S(C)(=O)=O)cc6)n5n4)ccc3[nH]2)CC1 [Example 1542, [7-(4-Methanesulfonyl-phenyl)-pyrrolo[2,1-f][1,2,4]triazin-2-yl]-[2-(4-methyl-piperazin-1-ylmethyl)-1H-benzimidazol-5-yl]-amine] | 1000 to 10000 | < 100 |  |  |
| COc1ccc(-c2ccc3cnc(Nc4ccn(CC(=O)N5CCN(C)CC5)n4)nn23)cn1 [Example 1115, 2-{3-[7-(6-Methoxy-pyridin-3-yl)-pyrrolo[2,1-f][1,2,4]triazin-2-ylamino]-pyrazol-1-yl}-1-(4-methyl-piperazin-1-yl)-ethanone] |  |  | 1000 to 10000 | < 100 |
| Cn1cc(-c2ccc3cnc(Nc4ccc(C5CN(CC(N)=O)C5)cc4)nn23)cn1 [Example 585, 2-(3-{4-[7-(1-Methyl-1H-pyrazol-4-yl)-pyrrolo[2,1-f][1,2,4]triazin-2-ylamino]-phenyl}-azetidin-1-yl)-acetamide] |  |  | 100 to 1000 | < 100 |
| CS(=O)(=O)c1ccc(-c2ccc3cnc(Nc4ccc5c(c4)CCC(N4CCOCC4)CC5)nn23)cc1 (stereo not shown) [Example 612, [7-(4-Methanesulfonyl-phenyl)-pyrrolo[2,1-f][1,2,4]triazin-2-yl]-(7-morpholin-4-yl-6,7,8,9-tetrahydro-5H-benzocyclohepten-2-yl)-amine] |  |  | 100 to 1000 | < 100 |
| COc1ccc(-c2ccc3cnc(Nc4ccc(C5CCN(CC(N)=O)CC5)c(OC)c4)nn23)cn1 [Example 911, 2-(4-{2-Methoxy-4-[7-(6-methoxy-pyridin-3-yl)-pyrrolo[2,1-f][1,2,4]triazin-2-ylamino]-phenyl}-piperidin-1-yl)-acetamide] |  |  | < 100 | < 100 |
| Clc1cccc(-c2ccc3cnc(Nc4ccc5ncccc5c4)nn23)c1 [Example 177, [7-(3-Chloro-phenyl)-pyrrolo[2,1-f][1,2,4]triazin-2-yl]-quinolin-6-yl-amine] | 100 to 1000 | < 100 |  |  |
| O=S1(=O)CCN(Cc2ccc(Nc3ncc4ccc(-c5cccnc5)n4n3)cc2)CC1 [Example 1050, [4-(1,1-Dioxo-1$1(6)-thiomorpholin-4-ylmethyl)-phenyl]-(7-pyridin-3-yl-pyrrolo[2,1-f][1,2,4]triazin-2-yl)-amine] |  |  | 1000 to 10000 | < 100 |
| COc1cc(Nc2ncc3ccc(-c4ccccc4)n3n2)cc(OC)c1OC [Example 13, (7-Phenyl-pyrrolo[2,1-f][1,2,4]triazin-2-yl)-(3,4,5-trimethoxy-phenyl)amine] | 100 to 1000 | < 100 |  |  |
| [4-(4-Diethylamino-piperidin-1-yl)-phenyl]-[7-(4-methanesulfonyl-phenyl)-pyrrolo[2,1-f][1,2,4]triazin-2-yl]-amine [Example 1136] |  |  | 100 to 1000 | < 100 |
| COc1ccccc1-c1ccc2cnc(Nc3ccc(C4CCN(C(=O)C5CCN(C)CC5)CC4)cc3)nn12 [Example 500, (4-{4-[7-(2-Methoxy-phenyl)-pyrrolo[2,1-f][1,2,4]triazin-2-ylamino]-phenyl}-piperidin-1-yl)-(1-methyl-piperidin-4-yl)-methanone] |  |  | < 100 | < 100 |
| COc1cc(N2CCCC(N3CCOCC3)C2)ccc1Nc1ncc2ccc(-c3ccccc3OC)n2n1 (stereo not shown) [Example 1444, [2-Methoxy-4-(3-morpholin-4-yl-piperidin-1-yl)-phenyl]-[7-(2-methoxy-phenyl)-pyrrolo[2,1-f][1,2,4]triazin-2-yl]-amine] | < 100 | 100 to 1000 |  |  |

Second part, the compound after the results:

| IC50 (ALK; ALK Kinase Inhibition) [nM] | IC50 (JAK2; JAK2 Kinase Inhibition) [nM] | IC50 (ALK; [1]) [nM] | IC50 (JAK2; [2]) [nM] | Compound |
| --- | --- | --- | --- | --- |
| 1000 to 10000 | < 100 |  |  | CS(=O)(=O)c1cccc(-c2ccc3cnc(Nc4ccc5[nH]c(CN6CCN(CCO)CC6)nc5c4)nn23)c1 [Example 1539, 2-(4-{5-[7-(3-Methanesulfonyl-phenyl)-pyrrolo[2,1-f][1,2,4]triazin-2-ylamino]-1H-benzimidazol-2-ylmethyl}-piperazin-1-yl)-ethanol] |
|  |  | 100 to 1000 | < 100 | CN1CCN(c2ccc(Nc3ncc4ccc(C5=CCC(S(C)(=O)=O)CC5)n4n3)cc2)CC1 (stereo not shown) [Example 620, [7-(4-Methanesulfonyl-cyclohex-1-enyl)-pyrrolo[2,1-f][1,2,4]triazin-2-yl]-[4-(4-methyl-piperazin-1-yl)-phenyl]-amine] |
|  |  | < 100 | 100 to 1000 | COc1cc(N2CCC(N3CCCN(CCO)CC3)CC2)ccc1Nc1ncc2ccc(-c3ccccc3N(C)S(C)(=O)=O)n2n1 [Example 803, N-{2-[2-(4-{4-[4-(2-Hydroxy-ethyl)-[1,4]diazepan-1-yl]-piperidin-1-yl}-2-methoxy-phenylamino)-pyrrolo[2,1-f][1,2,4]triazin-7-yl]-phenyl}-N-methyl-methanesulfonamide] |
| > 10000 | < 100 |  |  | COCCOc1ncc2ccc(-c3cccc(Cl)c3)n2n1 [Example 190, 7-(3-Chloro-phenyl)-2-(2-methoxy-ethoxy)-pyrrolo[2,1-f][1,2,4]triazine] |
| 1000 to 10000 | < 100 |  |  | CNC(=O)c1ccc(-c2ccc3cnc(Nc4ccc(N5CCOCC5)cc4)nn23)cc1 [Example 55, N-Methyl-4-[2-(4-morpholin-4-yl-phenylamino)-pyrrolo[2,1-f][1,2,4]triazin-7-yl]-benzamide] |
|  |  | < 100 | < 100 | COc1cc(N2CCN(C[C@@H](C)O)CC2)ccc1Nc1ncc2ccc(-c3ccccc3OC)n2n1 [Example 754, (R)-1-(4-{3-Methoxy-4-[7-(2-methoxy-phenyl)-pyrrolo[2,1-f][1,2,4]triazin-2-ylamino]-phenyl}-piperazin-1-yl)-propan-2-ol] |
|  |  | < 100 | 1000 to 10000 | COc1cc(C2CCN(CC(N)=O)CC2)ccc1Nc1ncc2ccc(-c3cc(F)c(F)cc3N(C)S(C)(=O)=O)n2n1 [Example 746, 2-[4-(4-{7-[4,5-Difluoro-2-(methanesulfonyl-methyl-amino)-phenyl]-pyrrolo[2,1-f][1,2,4]triazin-2-ylamino}-3-methoxy-phenyl)-piperidin-1-yl]-acetamide] |
|  |  | 1000 to 10000 | < 100 | Cc1cc2cnc(Nc3ccc(C4CCN(CC(N)=O)CC4)cc3)nn2c1-c1ccccc1N(C)S(C)(=O)=O [Example 516, 2-[4-(4-{7-[2-(Methanesulfonyl-methyl-amino)-phenyl]-6-methyl-pyrrolo[2,1-f][1,2,4]triazin-2-ylamino}-phenyl)-piperidin-1-yl]-acetamide] |
| < 100 | 100 to 1000 |  |  | COc1cc(N2CCC(N3CCN(C)CC3)CC2)ccc1Nc1ncc2ccc(-c3cccnc3)n2n1 [Example 241] |
|  |  | < 100 | 1000 to 10000 | COc1cc(CN2CCOCC2)ccc1Nc1ncc2ccc(-c3ccccc3N(C)S(C)(=O)=O)n2n1 [Example 1221, N-{2-[2-(2-Methoxy-4-morpholin-4-ylmethyl-phenylamino)-pyrrolo[2,1-f][1,2,4]triazin-7-yl]-phenyl}-N-methyl-methanesulfonamide] |
| 1000 to 10000 | > 10000 |  |  | COc1cc(N2CCOCC2)ccc1Nc1ncc2cc3ccccc3n2n1 [Example 266, (2-Methoxy-4-morpholin-4-yl-phenyl)-[1,2,4]triazino[1,6-a]indol-2-yl-amine] |

Source: patent US8471005B2 (Cephalon, Inc., priority 2008, dated 2013)
